Experimental data: US20170211073A1, “ANTISENSE ANTINEOPLASTIC AGENT” (priority 2014, published 2017)

Tests used:
[1] = system: malignant mesothelioma cell strain H226; assay: Proliferation of H226 cells; type: cell-based
[2] = system: human large intestine cancer cells HCT116; assay: Antitumor effect of YB-1 ASO AmNA into blood, HCT116 subcutaneous tumor; type: in vivo, nude mice
Description: Antitumor effect of administration into blood of YB-1 ASO of AmNA type, of which high safety was confirmed in Example 9 compared with ASO constituted with the conventional BNA, was examined. The human large intestine cancer cells HCT116 were subcutaneously transplanted to the thighs of nude mice. After subcutaneous tumors having a diameter of 6 to 7 mm (average tumor volume, 78 vs. 72 mm^3) were formed, 200 μg/200 μL of YB-1 ASO AmNA was administered (once every two weeks, total 2 times) into the blood from the caudal veins. The diameters of the tumors were measured over time, and tumor volumes calculated in accordance with a calculation formula, (Major axis)×(Minor axis)/2, were compared with those obtained with the control antisense group. The subcutaneous tumors were collected after one week from the second administration (day 28), and weights thereof were compared. In the YB-1 ASO AmNA group, both the tumor diameter and tumor weight were suppressed to about ⅕ of those observed with the control antisense group (FIG. 10, *P<0.05).

[3] = system: Lewis lung cancer; assay: Lewis lung cancer subcutaneous tumor model; type: in vivo; conditions: 10 mg/kg BW caudal vein once a week for three weeks; days 14 and 21; vs control antisense group
Description: Subcutaneous tumor models of lung cancer, Lewis lung cancer, were created. […] The tumor diameters were measured over time.

[4] = system: YB-1; assay: YB-1 expression in AS44 by real-time RT-PCR; type: cell-based; conditions: Lipofectamine RNAiMax
Excerpt: The #10 AmNA YB-1 antisense was introduced into cells of the gastric cancer cell strain AS44 using the reagent Lipofectamine RNAiMax, and expression of YB-1 was examined by real-time RT-PCR.

[5] = system: gastric cancer cell strain AS44-luc; assay: AS44-luc peritoneum inoculation model, survival; type: in vivo; conditions: 10 mg/kg BW intraperitoneally once a week for two weeks, vs control group
Description: Peritoneum inoculation models of gastric cancer cell strain AS44-luc stably expressing luciferase were prepared. Then, after 1 week from the transplantation of the cancer cells, 10 mg/kg BW of #10 AmNA YB-1 antisense was intraperitoneally administered once a week for two weeks, and the tumor volume was evaluated over time in terms of the luciferase activity.

[6] = system: ovarian cancer cell strain SKOV3; assay: SKOV3-luciferase peritoneum inoculation model; type: in vivo; conditions: 10 mg/kg BW intraperitoneally once a week for two weeks, vs control group
Description: Peritoneum inoculation models of ovarian cancer cell strain SKOV3 stably expressing luciferase were prepared. Then, after 1 week from the transplantation of the cancer cells, 10 mg/kg BW of #10 AmNA YB-1 antisense was intraperitoneally administered once a week for two weeks, and the tumor volume was evaluated over time in terms of the luciferase activity.

[7] = system: YB-1; assay: YB-1 expression in H226 by real-time RT-PCR; type: cell-based; conditions: Lipofectamine RNAiMax
Excerpt: The #10 AmNA YB-1 antisense was introduced into cells of the malignant mesothelioma cell strain H226 using the reagent Lipofectamine RNAiMax, and expression of YB-1 was examined by real-time RT-PCR.

[8] = system: pancreatic cancer cell strain SUIT-2; assay: Radiation sensitivity enhancement, SUIT-2; type: cell-based; conditions: antisense 10 nM
Description: The #10 AmNA YB-1 antisense (10 nM) was introduced into cells of the pancreatic cancer cell strain SUIT-2 using the reagent Lipofectamine RNAiMax, and cell-killing effects of X-ray irradiation observed in the presence and absence of the antisense were compared.

[9] = system: pancreatic cancer cell strain MIA PaCa-2; assay: Anticancer agent sensitivity enhancement, MIA PaCa-2; type: cell-based; conditions: antisense 5 nM, 5-FU, gemcitabine
Description: The #10 AmNA YB-1 antisense (5 nM) was introduced into cells of the pancreatic cancer cell strain MIA PaCa-2 (FIG. 19A) and ovarian cancer cell strain SKOV-3 (FIG. 19B) using the reagent Lipofectamine RNAiMax, and cell-killing effects of the anticancer agent observed in the presence and absence of the antisense were compared. […] The anticancer agent concentrations that provided equivalent cell-killing effects are shown in blue color (5-FU) or red color (gemcitabine).

[10] = system: large intestine cancer HCT116 cells; assay: Repetitive administration into blood, HCT116 subcutaneous tumor growth; type: in vivo, nude mice; conditions: 10 mg/kg BW caudal vein once a week over three weeks, days 14 and 21
Description: The tumor diameters were measured over time.

[11] = General blood and biochemical examinations, mice with Suit2-GR sc tumor; conditions: SUIT2-GR and HCT116 models; 10 mg/kg BW once a week over three weeks
Description: Subcutaneous tumor models were created by subcutaneously transplanting gemcitabine-resistant pancreatic cancer SUIT2-GR cells and large intestine cancer HCT116 cells to the thighs of nude mice. After tumors having a volume of 50 mm^3 were formed, 10 mg/kg BW of #10AmNA YB-1 antisense was administered from the caudal veins once a week over three weeks. The tumor diameters were measured over time.

[12] = system: YB-1; assay: YB-1 knockdown siRNA vs AmNA-AON, protein level (Western blotting); type: cell-based; conditions: AsPC-1, MIA PaCa-2, Suit-2, 20 nM, 48 hours
Description: YB-1-siRNA or YB-1 #10AmNA was introduced (final concentration, 20 nM) into cells of the pancreatic cancer cell strains (AsPC-1, MIA PaCa-2, and Suit-2). After 48 hours, RNAs and proteins were extracted, and the YB-1 expression was evaluated by real-time RT-PCR and Western blotting at the mRNA level (A) and protein level (B), respectively. Both the knockdown efficiencies obtained with siRNA and #10 AmNA-AON were high at the mRNA level, and any clear difference was not observed between them. […] The graphs show mean±SD (n=3, *P<0.05).

[13] = system: YB-1; assay: YB-1 expression in SKOV3 by real-time RT-PCR; type: cell-based; conditions: Lipofectamine RNAiMax
Excerpt: The #10 AmNA YB-1 antisense was introduced into cells of the ovarian cancer cell strain SKOV3 using the reagent Lipofectamine RNAiMax, and expression of YB-1 was examined by real-time RT-PCR.

[14] = system: ovarian cancer cell strain SKOV3; assay: Proliferation of SKOV3 cells; type: cell-based
[15] = system: gastric cancer cell strain AS44; assay: Proliferation of AS44 cells; type: cell-based
[16] = system: pancreatic cancer cell strain SUIT2; assay: Apoptosis induction in SUIT2 by FACS and Western blotting (PARPp85, caspase-3); type: cell-based; conditions: 20 nM, in vitro
Description: In the same manner as that of Example 3, 20 nM of #10AmNA YB-1 antisense was introduced into the cells of the pancreatic cancer cell strain SUIT2 in vitro.

[17] = system: YB-1; assay: YB-1 knockdown efficiency of NA, BNA and AmNA antisenses in HUVEC, HPAEC, MiaPaCa2 (real-time RT-PCR); type: cell-based; conditions: 24 hours, vs naturally occurring type and LNA type antisense
Description: YB-1 naturally occurring type nucleic acid antisense (NA), LNA/BNA type nucleic acid antisense (BNA), and AmNA type nucleic acid antisense (AmNA) were introduced into cells of the vascular endothelial cell strains (HUVEC, HPAEC) and the pancreatic cancer cell strain (MiaPaCa2-) at various concentrations. RNAs were extracted 24 hours afterward, and the YB-1 expression was evaluated by real-time RT-PCR. […] The graphs show mean±SD (n=3, *P<0.01 vs. BNA, P<0.0001 vs. NA)

Substance: TCTcctgcaccCTGg (TCTCCTGCACCCTGG; chemistry not fully specified) [#10AmNA]
- suppression of proliferation [1]: suppression of proliferation
- tumor diameter as fraction of control antisense group ([2]; 200 μg/200 μL caudal vein, once every two weeks, total 2 times): about ⅕
- tumor weight as fraction of control antisense group ([2]; day 28): about ⅕
- increase of the tumor [3]: significantly suppressed
- suppression of YB-1 expression [4]: Concentration-dependent suppression
- survival rate (Kaplan-Meier) [5]: significantly increased
- tumor volume (luciferase activity) [6]: significantly suppressed
- suppression of YB-1 expression [7]: Concentration-dependent suppression
- cell-killing effects of X-ray irradiation in presence of the antisense [8]: Enhancement of the cell-killing effect
- cell-killing effects of the anticancer agent in presence of the antisense [9]: Enhancement of the cell-killing effect
- subcutaneous tumor-suppressing effect [10]: significant subcutaneous tumor-suppressing effect
- safety with the every week administration protocol [11]: any problem was not observed
- knockdown efficiency at the protein level [12]: clearly higher
- suppression of YB-1 expression [13]: Concentration-dependent suppression
- suppression of proliferation [14]: suppression of proliferation
- suppression of proliferation [15]: suppression of proliferation
- induction of apoptosis (FACS; PARPp85, caspase-3) [16]: Induction of apoptosis was observed
- YB-1 knockdown efficiency [17]: significantly higher
